Converted amounts (≈) assume the structure as drawn. “And” between values parts separate entries of the source, which are not always exact repeats. Identical values can stand only once. Like-named read-outs stand apart in the source and are kept apart here.
Assays:
[1] = tested on: murine splenocyte suspensions (BALB/c and C57BL/6J mice); assay: Mixed Lymphocyte Reaction (MLR); format: cell-based
Procedure: I. Mixed Lymphocyte Reaction
1. Murine splenocyte suspensions were prepared separately from BALB/c and C57BL/6J mice. […] The cell concentrations were adjusted to 2.5×10^6 cells/ml. Aliquots of each cell population were removed to separate tubes, and the remaining two cell suspensions combined to one tube.
(§1) 2. Serial, log10 dilutions of the pure compound were made in absolute ethanol, and 10 μl of each dilution was added to wells of microtiter test plates, and allowed to dry.
3. A volume of 0.2 ml of the combined splenocyte suspensions was added to triplicate test wells. Positive control wells received combined splenocyte suspensions in the absence of the test compounds. Negative control wells consisted of separate (not mixed) splenocyte suspensions cultured in the absence of the test compounds.
4. Plates were incubated in 5% CO2 at 37° C. for 86 hours.
5. A volume of 0.05 ml of ^3 H-thymidine (20 μCi/ml) was added to each well, and the plates were incubated in 5% CO2 at 37° C. for an additional 5 hours.
6. The contents of each well of the microtiter plates were harvested onto glass fiber filter strips, and the resulting filter discs placed in scintillation vials to which 2.0 ml of scintillation fluid was added.
7. The amount of incorporated ^3 H-thymidine was determined by counting the vials in a liquid scintillation counter.
8. Triplicate counts were averaged, and the data reported as a percentage of the positive control.

[2] = Lymphocyte Viability Assay (LCV); format: cell-based, murine; conditions: mouse, splenocytes, read-out: % LCV (percentage of positive control)
Procedure: (§2) II. Lymphocyte Viability Assay
(§3) 1. Compounds were similarly tested in parallel with the MLR to determine their toxic effects on lymphoid cells using the lymphocyte viability assay (LCV).
as §1
(§4) 3. Murine splenocyte suspensions were prepared from BALB/c mice. […] The cell concentrations were adjusted to 2.5×10^6 cells/ml.
(§5) 4. A volume of 0.2 ml of the splenocyte suspension was added to replicate test wells. Positive control wells received splenocyte suspensions in the absence of the test compounds.
(§6) 5. Plates were incubated at 37° C. for 86 hours. At the end of the incubation period, a volume of 75 μl of a 2.0 mg/ml solution of MTT was added to each well, and the plates were returned to the incubator for an additional 5 hours.
(§7) 6. The supernatants from each microwell were then removed, and a volume of 200 μl of isopropanol was added and the contents mixed.
(§8) 7. Values were obtained by comparing the optical densities (determined at 570 and 650 nm) of wells containing the test compounds with those of wells containing cells and medium only (positive control). The results are expressed as a percentage of the positive control.
(§9) 8. Replicate counts were averaged, and the data reported as a percentage of the positive control. An LCV value of less than 60% of the positive control is an indication of cytotoxicity of the test compounds for lymphoid cells.

[3] = tested on: lymphoid cells (murine BALB/c splenocytes); assay: Lymphocyte Viability Assay (LCV); format: cell-based
Procedure: as §2, §3, §1, §4, §5, §6, §7, §8, §9

[4] = tested on: graft vs host reaction in CB6F1 mice grafted with BALB/c splenocytes; assay: Graft vs. Host (GVHR) in vivo activity
Procedure: III. Graft vs. Host (GVHR) In Vivo Activity
1. Donor mice (BALB/c) were sacrificed, spleens removed, and spleen cell suspensions prepared in tissue culture medium.
2. The above splenocyte suspension was adjusted to 10.0×10^7 cells/ml.
3. Mice were treated with varying dosages of the test compound. […] Treatment consisted of intraperitoneal injections, daily for 7 days. Dosages were calculated on a mg per kg body weight basis.
4. On day 1 of the first treatment regimen, recipient mice (CB6) were injected intraperitoneally with 0.50 ml (50.0×10^6) of the donor (BALB/c) splenocyte suspension.
5. Controls consisted of the following:
POS--mice receiving BALB/c splenocytes (Positive Control)
SYN--mice receiving CB6 splenocytes (Syngeneic Control)
CYP--mice receiving Cyclophosphamide (100 mg/kg) and BALB/c splenocytes
6. At the end of five days, recipient mice were sacrificed, weighed, and spleens removed and weighed.
7. A spleen index of 1.0 was assigned to the mean spleen weights (adjusted to body weight) of the SYN controls. The spleen index of treated mice was determined by comparing the spleen weights of those mice with that of the […]. […] As a general rule, a spleen index of less than the positive control is indicative of an immunosuppressive (ID) compound.
^a CB6F1 mice (5 mice per group) were grafted with 5 ×
10^7 BALB/c spelnocytes, i.p. on Day 0. Groups were injected, ii.p.,
with drug (or vehicle) on Days 1-6. Positive designates grafted mice
receiving vehicle alone.
^b Number of surviving mice at end of experiment.
(Stimulation Index of Syngeneic group (CB6F1 ->CB6F1) = 100

P388 cells = assay: Antiproliferative effects against P388 cells (antitumor, MTT); format: cell-based; conditions: Mus musculus, P388, 48 hour exposure
Procedure: IV. Antitumor Methodology
To assess the antiproliferative effects against P388 cells, 200 μl cultures (96-well tissue culture plates, Nunc, Denmark) were established at 1×10^5 cells/ml in drug-free medium or medium containing the pure compounds/crude extracts at a final dilution or 1:500 and at various concentrations. Solvent for all dilutions was methanol, which was removed from plates under vacuum. All experimental cultures were initiated in media containing Gentamicin sulfate (50 μg/ml; Schering Corporation, Kenilworth, NJ).
To quantitate the effects of pure compounds/crude extracts on cell proliferation, 75 μl of warm growth medium containing 5 mg/ml MTT was added to each well, cultures were returned to the incubator, and were left undisturbed for 90 minutes. To spectrophotometrically quantitate formation of reduced formazan, plates were centrifuged (900×g, 5 minutes), culture fluids removed by aspiration, and 200 μl of acidified isopropanol (2 ml concentrated HCl/liter isopropanol) added per well. The absorbance of the resulting solutions were measured at 570 nm with a plate reader (MR700 Microplate Reader, Dynatech Laboratories, Chantilly, VA).

[5] = Mus musculus, Splenocyte, 0.05 μg/ml, read-out: % MLR (percentage of positive control)
[6] = Mus musculus, Splenocyte, 0.5 μg/ml, read-out: % MLR (percentage of positive control)
[7] = Mus musculus, Splenocyte, 5.0 μg/ml, read-out: % MLR (percentage of positive control)
[8] = Mus musculus, Splenocyte, 50 μg/ml, read-out: % MLR (percentage of positive control)

| Structure (SMILES) | activity at 0.05 µg/mL [1, 5] [%] | activity at 0.5 µg/mL [1, 6] [%] | activity at 5 µg/mL [1, 7] [%] | activity at 50 µg/mL [1, 8] [%] | viability ([2]; 0.05 μg/ml) [%] | viability ([2]; 0.5 μg/ml) [%] | viability ([2]; 5.0 μg/ml) [%] | viability ([2]; 50 μg/ml) [%] | also measured |
| --- | --- | --- | --- | --- | --- | --- | --- | --- | --- |
| C#CC(O)C=CC=CCCCC (centres unmarked) [CH3 (CH2)3 CH=CH--CH=CH--CHOHC≡CH] | 134 | 0 | 0 | 0 | 103 | 72 | 14 | 29 | – |
| C#CC(O)CCCC (centres unmarked) [CH3 (CH2)3 CHOHC≡CH] | 89 | 136 | 47 | 0 | 117 | 116 | 0 | 61 | – |
| CCCCCC=CC(O)C#CCCCCCCCC (centres unmarked) [CH3 (CH2)4 CH=CH--CHOH--C≡C--(CH2)7 CH3] | – | – | – | – | – | – | – | – | % MLR (percentage of positive control) ([1]; 0.05 μg/ml): 127%; % MLR (percentage of positive control) ([1]; 0.2 μg/ml): 135%; % MLR (percentage of positive control) ([1]; 0.8 μg/ml): 122%; % MLR (percentage of positive control) ([1]; 3.1 μg/ml): 64%; % MLR (percentage of positive control) ([1]; 12.5 μg/ml): 0%; % MLR (percentage of positive control) ([1]; 50 μg/ml): 0%; % LCV (percentage of positive control) ([3]; 0.05 μg/ml): 128%; % LCV (percentage of positive control) ([3]; 0.2 μg/ml): 119%; % LCV (percentage of positive control) ([3]; 0.8 μg/ml): 105%; % LCV (percentage of positive control) ([3]; 3.1 μg/ml): 86%; % LCV (percentage of positive control) ([3]; 12.5 μg/ml): 28%; % LCV (percentage of positive control) ([3]; 50 μg/ml): 14% |
| C#CC(O)CCC=CCCCCC (centres unmarked) [CH3 (CH2)4 CH=CHCH2 CH2 CHOHC≡CH] | 137 | 122 | 110 | 50 | 65 | 57 | 45 | 51 | % Suppression ([4]; 50.0 mg/kg, i.p.): 35%; Stim. Index (spleen index) ([4]; 50.0 mg/kg, i.p.): 2.09; % Suppression ([4]; 100 mg/kg, i.p.): 59%; Stim. Index (spleen index) ([4]; 100 mg/kg, i.p.): 1.69; % Suppression ([4]; 150.0 mg/kg, i.p.): 28%; Stim. Index (spleen index) ([4]; 150.0 mg/kg, i.p.): 2.21; % Suppression ([4]; 200 mg/kg, i.p.): 57%; Stim. Index (spleen index) ([4]; 200 mg/kg, i.p.): 1.72; suppression of the GVHR (splenomegaly response), in words ([4]; mouse, in vivo): demonstrated suppressive activity in the GVHR at all dosages tested; toxicity as measured by survival of treated recipients, in words ([4]; mouse, in vivo): no associated toxicity as measured by survival of treated recipients |
| C#CC(O)CCCCCCC (centres unmarked) [CH3 (CH2)6 CHOHC≡CH] | 117 | 130 | 131 | 108 | 72 | 85 | 70 | 61 | – |
| CCCCCCCCCCCCCCCCO [CH3 (CH2)14 CH2 OH] | 136 | – | – | 0 | 70 | – | – | 0 | activity at 0.2 µg/mL ([1]; Mus musculus, Splenocyte, 0.2 μg/ml, read-out: % MLR (percentage of positive control)): 128%; activity at 0.8 µg/mL ([1]; Mus musculus, Splenocyte, 0.8 μg/ml, read-out: % MLR (percentage of positive control)): 127%; activity at 3.1 µg/mL ([1]; Mus musculus, Splenocyte, 3.1 μg/ml, read-out: % MLR (percentage of positive control)): 137%; activity at 12.5 µg/mL ([1]; Mus musculus, Splenocyte, 12.5 μg/ml, read-out: % MLR (percentage of positive control)): 0%; IC50 (P388 cells): 9.3 µg/mL (≈ 38.4 µM); viability ([2]; 0.2 μg/ml): 86%; viability ([2]; 0.8 μg/ml): 37%; viability ([2]; 3.1 μg/ml): 98%; viability ([2]; 12.5 μg/ml): 0% |
| C#CC(O)CCCCCCCCCCCCCCC (centres unmarked) [CH3 (CH2)14 CHOHC≡CH] | 100 | 0 | 0 | 0 | 105 | 47 | 36 | 10 | – |
| C#CC(O)C=CCCCCCCCCCCCCCCCC (centres unmarked) [CH3 (CH2)15 CH=CHCOHC≡CH] | – | – | – | – | – | – | – | – | % MLR (percentage of positive control) ([1]; 0.05 μg/ml): 13%; % MLR (percentage of positive control) ([1]; 0.5 μg/ml): 0%; % MLR (percentage of positive control) ([1]; 5.0 μg/ml): 0%; % MLR (percentage of positive control) ([1]; 50 μg/ml): 0%; % LCV (percentage of positive control) ([3]; 0.05 μg/ml): 78%; % LCV (percentage of positive control) ([3]; 0.5 μg/ml): 78%; % LCV (percentage of positive control) ([3]; 5.0 μg/ml): 17%; % LCV (percentage of positive control) ([3]; 50 μg/ml): 13% |
| C=CC(O)CCCCCCCCCCCCCCCC (centres unmarked) [CH3 (CH2)15 CHOHCH=CH2] | 99 | 74 | 0 | 0 | 80 | 80 | 2 | 5 | – |
| C#CC(O)CCCCCCCCCCCCCCCC (centres unmarked) [CH3 (CH2)15 CHOHC≡CH] | 0 | 0 | 0 | 0 | 49 | 22 | 24 | 22 | activity at 0.005 µg/mL ([1]; Mus musculus, Splenocyte, 0.005 μg/ml, read-out: % MLR (percentage of positive control)): 0%; viability ([2]; 0.005 μg/ml): 65%; % Suppression ([4]; 50.0 mg/kg, i.p.): 49%; % Suppression ([4]; 100 mg/kg, i.p.): 0%; % Suppression ([4]; 150.0 mg/kg, i.p.): 4%; % Suppression ([4]; 200 mg/kg, i.p.): 0% |
| C#CC(=O)CCCCCCCCCCCCCCCC [CH3 (CH2)15 COC≡CH] | 114 | 7 | 0 | 0 | 91 | 89 | 47 | 34 | – |
| O=P1(N(CCCl)CCCl)NCCCO1 (centres unmarked) [Cyclophosphamide, reference compound] | – | – | – | – | – | – | – | – | % Suppression ([4]; 100 mg/kg, i.p.): 160% and 142% and 132%; # Mice (number of surviving mice at end of experiment) ([4]; 100 mg/kg, i.p., 5 mice per group): 5 mice; suppression of the GVHR (splenomegaly response), in words ([4]; mouse, in vivo): displayed the characteristic suppression of the splenomegaly response |
